{
  "source": "PubChem BioAssay (NCI)",
  "system": "MDA-MB-468 breast",
  "test": "inhibition of tumour cell growth, NCI panel, 48 h",
  "note": "Several values for one entry are separate records, joined by “and”; a condition that tells them apart may be missing. Equal entries are not always repeated.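 In this assay, cells in 96-well plates receive the compound at five concentrations for 48 hours. Endpoints are linearly interpolated between the surrounding concentrations. The concentration for 50% growth inhibition is given as GI50. TGI: total growth inhibition.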",
  "data": [
    {"smiles": "CN1CCN(Cc2ccc(NC(=O)c3cncc(C#Cc4cncc5ncccc45)c3)cc2C(F)(F)F)CC1", "values": [
      {"measurement": "GI50", "value": 8720, "unit": "nM"},
      {"measurement": "TGI", "value": 21800, "unit": "nM"}
    ]},
    {"smiles": "CN(C)c1ncnc2c1nnn2C1OC(CO)C(O)C1O", "note": "(configuration not stated)", "values": [
      {"measurement": "GI50", "value": 73.6, "unit": "nM"},
      {"measurement": "TGI", "value": 1160, "unit": "nM"}
    ]},
    {"smiles": "CN(C)c1ccc(/C=C(\\C#N)c2nc3ccccc3n2C)cc1", "values": [
      {"measurement": "GI50", "value": 1760, "unit": "nM"},
      {"measurement": "TGI", "value": "> 100000", "unit": "nM"}
    ]},
    {"smiles": "O=c1c2ccccc2n2n1CC(O)C2", "note": "(configuration not stated)", "values": [
      {"measurement": "GI50", "value": "> 100000", "unit": "nM"},
      {"measurement": "TGI", "value": "> 100000", "unit": "nM"}
    ]},
    {"smiles": "O=[N+]([O-])c1ccc2c(N3CCC(CCCC4CCN(c5ncnc6cc([N+](=O)[O-])ccc56)CC4)CC3)ncnc2c1", "values": [
      {"measurement": "GI50", "value": 31.6, "unit": "nM"},
      {"measurement": "TGI", "value": "> 100000", "unit": "nM"}
    ]},
    {"smiles": "COc1ccc(C2=NN(C(=O)c3cc(OC)c(OC)c(OC)c3)C(c3ccc(Cl)cc3)C2)cc1OC", "note": "(configuration not stated)", "values": [
      {"measurement": "GI50", "value": 585, "unit": "nM"},
      {"measurement": "TGI", "value": "> 100000", "unit": "nM"}
    ]},
    {"smiles": "CNC(=O)c1ccc2cc(C3(O)CCn4cncc43)ccc2c1", "note": "(configuration not stated)", "values": [
      {"measurement": "GI50", "value": "> 100000", "unit": "nM"},
      {"measurement": "TGI", "value": "> 100000", "unit": "nM"}
    ]},
    {"smiles": "COc1cnc2c(c1)C(=O)c1c-2n(CCCN2CCC(O)CC2)c(=O)c2cc(F)ccc12", "values": [
      {"measurement": "GI50", "value": 152, "unit": "nM"},
      {"measurement": "TGI", "value": 438, "unit": "nM"}
    ]},
    {"smiles": "COc1ccc(-c2nn(-c3cccc(NC(=O)c4ccc5c(c4)OCCO5)c3)cc2-c2ccncc2)cc1Cl", "values": [
      {"measurement": "GI50", "value": 1630, "unit": "nM"},
      {"measurement": "TGI", "value": 6480, "unit": "nM"}
    ]},
    {"smiles": "CC1=C2C(=C[C@@](C)(C=O)[C@@H]2O)C(=O)[C@](C)(O)C12CC2", "values": [
      {"measurement": "GI50", "value": 233, "unit": "nM"},
      {"measurement": "TGI", "value": 764, "unit": "nM"}
    ]},
    {"smiles": "CCN1C(=O)NC(=O)C(C)(N2C(=O)c3c(F)c(F)c(F)c(F)c3C2=O)C1=O", "note": "(configuration not stated)", "values": [
      {"measurement": "GI50", "value": 1750, "unit": "nM"},
      {"measurement": "TGI", "value": 5680, "unit": "nM"}
    ]},
    {"smiles": "O=C(Nc1cccc(Oc2nnc(Cl)c3ccccc23)c1)Nc1ccc(Cl)c(C(F)(F)F)c1", "values": [
      {"measurement": "GI50", "value": 689, "unit": "nM"},
      {"measurement": "TGI", "value": 3430, "unit": "nM"}
    ]},
    {"smiles": "CC1CCN(CCCCCOc2ccc3oc4cc(Cl)ccc4c(=O)c3c2)CC1", "values": [
      {"measurement": "GI50", "value": 6130, "unit": "nM"},
      {"measurement": "TGI", "value": 13600, "unit": "nM"}
    ]},
    {"smiles": "O=C(Nc1ccc(Oc2ccc3nc(NC(=O)c4ccccc4)[nH]c3c2)cc1)Nc1cc(C(F)(F)F)ccc1F", "values": [
      {"measurement": "GI50", "value": 625, "unit": "nM"},
      {"measurement": "TGI", "value": 5450, "unit": "nM"}
    ]},
    {"smiles": "Cc1cc(C2=NNC(=O)Cc3cc4c(cc32)OCCO4)cc(C)c1N", "values": [
      {"measurement": "GI50", "value": 523, "unit": "nM"},
      {"measurement": "TGI", "value": 7240, "unit": "nM"}
    ]},
    {"smiles": "CC(C)(C)c1[nH]cnc1/C=c1\\[nH]c(=O)/c(=C/c2ccccc2)[nH]c1=O", "values": [
      {"measurement": "GI50", "value": 22.6, "unit": "nM"},
      {"measurement": "TGI", "value": 28600, "unit": "nM"}
    ]},
    {"smiles": "Cn1cc(C2=C(c3cccnc3)C(=O)NC2=O)c2ccccc21", "values": [
      {"measurement": "GI50", "value": "> 20100", "unit": "nM"},
      {"measurement": "TGI", "value": "> 25000", "unit": "nM"}
    ]},
    {"smiles": "Cc1cnc(/C=N\\NC(N)=S)c2cccc(N)c12", "values": [
      {"measurement": "GI50", "value": 206, "unit": "nM"},
      {"measurement": "TGI", "value": 504, "unit": "nM"}
    ]},
    {"smiles": "COc1cc2nccc(Oc3ccc(NC(=O)C4(C(=O)Nc5ccc(F)cc5)CC4)cc3)c2cc1Oc1ccc(N)cn1", "values": [
      {"measurement": "GI50", "value": 2450, "unit": "nM"},
      {"measurement": "TGI", "value": 8820, "unit": "nM"}
    ]},
    {"smiles": "CC(C)(C#N)c1cc(F)cc(C(=O)Nc2cc(Nc3ncccc3-c3ncnc4nc[nH]c34)ccc2F)c1", "values": [
      {"measurement": "GI50", "value": "> 10000", "unit": "nM"},
      {"measurement": "TGI", "value": "> 10000", "unit": "nM"}
    ]},
    {"smiles": "O=C(Nc1ccc(Cl)cc1F)c1cc(I)ccc1O", "values": [
      {"measurement": "GI50", "value": 2100, "unit": "nM"},
      {"measurement": "TGI", "value": 5450, "unit": "nM"}
    ]},
    {"smiles": "COC(=O)[C@]12CC[C@@H](C)[C@H](C)[C@@H]1C1=CC[C@@H]3[C@@]4(C)C(C=O)=C[C@@](C)(COC(=O)c5ccco5)[C@@H]4C(=O)C[C@@]3(C)[C@]1(C)CC2", "values": [
      {"measurement": "GI50", "value": 277, "unit": "nM"}
    ]},
    {"smiles": "Oc1c(CN2CCCC2)cc(COCc2ccc(Br)cc2)c2cccnc12", "values": [
      {"measurement": "GI50", "value": 602, "unit": "nM"},
      {"measurement": "TGI", "value": 2140, "unit": "nM"}
    ]},
    {"smiles": "CC(=O)O[C@H](C[C@H](C(C)C)N(C)C(=O)[C@@H](NC(=O)[C@H]1CCCCN1C)C(C)C)c1nc(C(=O)N[C@@H](Cc2ccccc2)C[C@H](C)C(=O)O)c(C(C)C)s1", "values": [
      {"measurement": "GI50", "value": "< 3.33", "unit": "nM"},
      {"measurement": "TGI", "value": 194, "unit": "nM"}
    ]},
    {"smiles": "O=C(CF)N(O)c1ccc(/C=C/c2ccccc2)cc1", "values": [
      {"measurement": "GI50", "value": 64.2, "unit": "nM"},
      {"measurement": "TGI", "value": 354, "unit": "nM"}
    ]},
    {"smiles": "CC(=O)OCC(=O)O[C@@H]1C[C@]2(C(C)C)O[C@@]1(C)[C@@H]1CC[C@@H](C)[C@H]1[C@@H]2OC(=O)/C=C/c1ccccc1", "values": [
      {"measurement": "GI50", "value": 13500, "unit": "nM"},
      {"measurement": "TGI", "value": 55600, "unit": "nM"}
    ]},
    {"smiles": "N#Cc1ccc(N2Cc3ccccc3OC3=C2C(=O)c2c(O)ccc(O)c2C3=O)cc1", "values": [
      {"measurement": "GI50", "value": 132, "unit": "nM"},
      {"measurement": "TGI", "value": 366, "unit": "nM"}
    ]},
    {"smiles": "CCCC[N+](CCCC)=c1ccc2nc3c(C)cc(N(CC)CC)cc3sc-2c1", "values": [
      {"measurement": "GI50", "value": 39.1, "unit": "nM"},
      {"measurement": "TGI", "value": 351, "unit": "nM"}
    ]},
    {"smiles": "C[C@@H]1CC[C@@H]2[C@@H]1[C@H](OC(=O)/C=C/c1ccccc1)[C@]1(C3CCCCC3)C[C@@H](NC(=O)CO)[C@@]2(C)O1", "values": [
      {"measurement": "GI50", "value": 17100, "unit": "nM"},
      {"measurement": "TGI", "value": 33500, "unit": "nM"}
    ]},
    {"smiles": "CN1CCN(c2ccc3nc(-c4c(N)c5c(F)cccc5[nH]c4=O)[nH]c3c2)CC1", "values": [
      {"measurement": "GI50", "value": "1460 nM and 953 nM and 2300 nM"},
      {"measurement": "TGI", "value": "3580 nM and > 2300 nM and 7030 nM"}
    ]},
    {"smiles": "CC[C@H](Nc1nc(N)nc(C)c1C#N)c1nc2cccc(NCc3ccc(C(=O)NO)cc3)c2c(=O)n1-c1ccccc1", "values": [
      {"measurement": "GI50", "value": 1270, "unit": "nM"},
      {"measurement": "TGI", "value": 4420, "unit": "nM"}
    ]},
    {"smiles": "C#C[C@]1(O)CC[C@H]2[C@@H]3CC=C4c5sc(Nc6cccc(C)n6)nc5CC[C@]4(C)[C@H]3CC[C@@]21C", "values": [
      {"measurement": "GI50", "value": 2040, "unit": "nM"},
      {"measurement": "TGI", "value": 5680, "unit": "nM"}
    ]},
    {"smiles": "O=C(CCCN1CCOCC1)Nc1ccc(Cn2nnc3c2C(=O)c2nnn(Cc4ccc(NC(=O)CCCN5CCOCC5)cc4)c2C3=O)cc1", "values": [
      {"measurement": "GI50", "value": 304, "unit": "nM"},
      {"measurement": "TGI", "value": 817, "unit": "nM"}
    ]},
    {"smiles": "CC/C=C\\C/C=C\\C[C@H](O)C/C=C1/C(=O)C=C[C@@H]1C/C=C\\CCCC(=O)O", "values": [
      {"measurement": "GI50", "value": 2320, "unit": "nM"},
      {"measurement": "TGI", "value": 6710, "unit": "nM"}
    ]},
    {"smiles": "C=CC[P+](c1ccccc1)(c1ccccc1)c1ccccc1", "values": [
      {"measurement": "GI50", "value": 609, "unit": "nM"},
      {"measurement": "TGI", "value": 9130, "unit": "nM"}
    ]},
    {"smiles": "CN(C)CCOc1ccc(/C(=C(/CCCl)c2ccccc2)c2ccccc2)cc1", "values": [
      {"measurement": "GI50", "value": 682, "unit": "nM"},
      {"measurement": "TGI", "value": 1520, "unit": "nM"}
    ]},
    {"smiles": "O=C1c2ccccc2C(=Cc2ccccc2)c2ccccc21", "values": [
      {"measurement": "GI50", "value": 565, "unit": "nM"},
      {"measurement": "TGI", "value": 10700, "unit": "nM"}
    ]},
    {"smiles": "Cc1noc(C)c1-c1cc(O)cc(C(O)c2ccccc2)c1", "note": "(configuration not stated)", "values": [
      {"measurement": "GI50", "value": 1890, "unit": "nM"},
      {"measurement": "TGI", "value": 40600, "unit": "nM"}
    ]},
    {"smiles": "O=C(CN1CCN(c2ccc(Cl)cc2)CC1)N1CCN(c2nnc(-c3ccc(Cl)cc3)c(-c3ccc(Cl)cc3)n2)CC1", "values": [
      {"measurement": "GI50", "value": 18800, "unit": "nM"},
      {"measurement": "TGI", "value": 65200, "unit": "nM"}
    ]}
  ]
}
